Reference: patent US8492087B2, “Method of judging risk for onset of drug-induced granulocytopenia” (Otsuka Pharmaceutical Co., Ltd., priority 2003, dated 2013)

System: human IRS-2 gene
Assay: Association analysis of human IRS-2 gene polymorphisms and granulocytopenia induced by vesnarinone administration
Type: in vivo
Conditions: subjects who had received vesnarinone
Description: In order to find genetic polymorphisms in relation to granulocytopenia attributed to drug administration, there were employed subjects who had received vesnarinone (3,4-dihydro-6-[4-(3,4-dimethoxybenzoy1)-1-piperaziny1]-2(1H)-quinoline).
Among subjects who had received vesnarinone, had orally agreed to cooperate with investigation of the cause for vesnarinone-induced granulocytopenia between May 1991 and October 1996, and had accepted to provide a blood sample, there were employed 84 subjects (male/female ratio=1.21:1) who had again agreed in writing to cooperate with genetic analysis according to ethical guidelines between July 2001 and December 2001. Genomic DNA was extracted from a blood sample (or a cell sample derived therefrom) of each of the subjects who had again agreed described above. through a common method, and was employed for the below-described tests.
Among the subjects, subjects having leukocytes or neutrophils which were decreased to half or less following vesnarinone administration, and having the number of leukocytes of 2,000/mm^3 or less, or the number of neutrophils of 1,000/mm^3 or less were classified as “subjects with granulocytopenia”.
Each of these groups was further classified into two groups according to sex, to thereby become four subgroups; i.e., a group of 13 male with granulocytopenia (group A), a group of 17 female with granulocytopenia (group B), a group of 33 male without granulocytopenia (group C), and a group of 21 female without granulocytopenia (group D).
The allele frequencies in the group of subjects with granulocytopenia were compared to that of subjects without granulocytopenia by the contingency χ square test. The odds ratio was estimated through the Brown method (Brown, C. C., Am. J. Epidemiol., 113: 474-480 (1981)). The 95% confidence interval of odds ratio was calculated through the Woolf method.
In order to determine the genotype distribution, all polymorphisms identified by the discovery above were analyzed in the all subjects described in Example 1 by amplifying the regions containing the polymorphisms with primer sets and sequencing the PCR products under the condition described above.
In addition to the statistical methods employed in Example 1, a pair-wise linkage disequilibrium coefficient (D′=D/Dmax or D/Dmin) was calculated by use of the method by Thompson, et al. (Thompson, E. A., et al., Am. J. Hum. Genet. 42: 113-124 (1988))

## COc1ccc(C(=O)N2CCN(c3ccc4c(c3)CCC(=O)N4)CC2)cc1OC [vesnarinone, 3,4-dihydro-6-[4-(3,4-dimethoxybenzoy1)-1-piperaziny1]-2(1H)-quinoline]
IRS-2 A15870G genotype AA, total 27
  subjects with agranulocytosis N (%): 10 (37.0) N (%)
IRS-2 A15870G genotype AA, total 49
  subjects without agranulocytosis N (%): 36 (73.5) N (%)
IRS-2 A15870G genotype AG + GG, total 27
  subjects with agranulocytosis N (%): 17 (63.0) N (%)
IRS-2 A15870G genotype AG + GG, total 49
  subjects without agranulocytosis N (%): 13 (26.5) N (%)
IRS-2 A29793G genotype AA, total 30
  subjects with agranulocytosis N (%): 11 (36.7) N (%)
IRS-2 A29793G genotype AA, total 53
  subjects without agranulocytosis N (%): 39 (73.6) N (%)
IRS-2 A29793G genotype AG + GG, total 30
  subjects with agranulocytosis N (%): 19 (63.3) N (%)
IRS-2 A29793G genotype AG + GG, total 53
  subjects without agranulocytosis N (%): 14 (26.4) N (%)
IRS-2 A-1164C genotype AA, total 30
  subjects with agranulocytosis N (%): 8 (26.7) N (%)
IRS-2 A-1164C genotype AA, total 49
  subjects without agranulocytosis N (%): 29 (59.2) N (%)
IRS-2 A-1164C genotype AC + CC, total 30
  subjects with agranulocytosis N (%): 22 (73.3) N (%)
IRS-2 A-1164C genotype AC + CC, total 49
  subjects without agranulocytosis N (%): 20 (40.8) N (%)
IRS-2 AT-2510del genotype AT, total 29
  subjects with agranulocytosis N (%): 7 (24.1) N (%)
IRS-2 AT-2510del genotype AT, total 49
  subjects without agranulocytosis N (%): 28 (57.1) N (%)
IRS-2 AT-2510del genotype ATdel + del, total 29
  subjects with agranulocytosis N (%): 22 (75.9) N (%)
IRS-2 AT-2510del genotype ATdel + del, total 49
  subjects without agranulocytosis N (%): 21 (42.9) N (%)
IRS-2 C31532del genotype CC, total 27
  subjects with agranulocytosis N (%): 9 (33.3) N (%)
IRS-2 C31532del genotype CC, total 48
  subjects without agranulocytosis N (%): 34 (70.8) N (%)
IRS-2 C31532del genotype Cdel + del, total 27
  subjects with agranulocytosis N (%): 18 (66.7) N (%)
IRS-2 C31532del genotype Cdel + del, total 48
  subjects without agranulocytosis N (%): 14 (29.2) N (%)
IRS-2 C-4587A genotype CA + AA, total 28
  subjects with agranulocytosis N (%): 21 (75.0) N (%)
IRS-2 C-4587A genotype CA + AA, total 49
  subjects without agranulocytosis N (%): 20 (40.8) N (%)
IRS-2 C-4587A genotype CC, total 28
  subjects with agranulocytosis N (%): 7 (25.0) N (%)
IRS-2 C-4587A genotype CC, total 49
  subjects without agranulocytosis N (%): 29 (59.2) N (%)
